Reference: US8153791B2, “Substituted pyrimidinyl oxime kinase inhibitors” (Janssen Pharmaceutica N.V., priority 2005, dated 2012)

What was measured:
[1] = molecular target: T1, EGFR (Homo sapiens, UniProt P00533); experiment: EGFR Kinase Assay; format: biochemical;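 also: recombinant GST-tagged EGFR expressed in Sf9 cells, phosphorylating biotinylated polyGluTyr with γ-33P ATP on Streptavidin Flashplates, 1 h at 30 °C, scintillation counting, inhibition relative to plate maximum and minimum signals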
T1 construct: The intracellular portion of EGFR started at nucleotide 2189 (corresponding to amino acid 667) and ended at the termination codon; made in house; host or cells: Sf9 insect cells (baculovirus)
T1 sequence (P00533 669-1210 limits assumed): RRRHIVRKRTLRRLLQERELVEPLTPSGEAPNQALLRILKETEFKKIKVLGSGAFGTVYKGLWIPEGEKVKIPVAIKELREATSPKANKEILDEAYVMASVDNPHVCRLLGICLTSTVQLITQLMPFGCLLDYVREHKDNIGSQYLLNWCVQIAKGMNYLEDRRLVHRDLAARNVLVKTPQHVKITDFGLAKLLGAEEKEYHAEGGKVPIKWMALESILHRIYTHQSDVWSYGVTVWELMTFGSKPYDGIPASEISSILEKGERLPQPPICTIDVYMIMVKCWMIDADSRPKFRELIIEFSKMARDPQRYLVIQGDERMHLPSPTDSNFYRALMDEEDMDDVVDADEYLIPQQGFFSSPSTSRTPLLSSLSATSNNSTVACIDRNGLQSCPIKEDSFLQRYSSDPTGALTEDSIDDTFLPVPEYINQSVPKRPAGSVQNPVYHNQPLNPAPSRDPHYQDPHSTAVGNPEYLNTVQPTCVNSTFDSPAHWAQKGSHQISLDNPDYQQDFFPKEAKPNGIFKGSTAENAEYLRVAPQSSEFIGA

[2] = molecular target: T2, HER-2 (Homo sapiens, UniProt P04626); experiment: HER-2 Kinase Assay; format: biochemical; settings: read-out: HER2 IC50;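 also: HER2 kinase reaction read by scintillation counting, inhibition scaled between maximum and minimum signals set on each plate, IC50 from inhibition against log concentration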
T2 construct: purchased Proqinase (Freiburg, Germany)
T2 sequence (P04626 679-1255): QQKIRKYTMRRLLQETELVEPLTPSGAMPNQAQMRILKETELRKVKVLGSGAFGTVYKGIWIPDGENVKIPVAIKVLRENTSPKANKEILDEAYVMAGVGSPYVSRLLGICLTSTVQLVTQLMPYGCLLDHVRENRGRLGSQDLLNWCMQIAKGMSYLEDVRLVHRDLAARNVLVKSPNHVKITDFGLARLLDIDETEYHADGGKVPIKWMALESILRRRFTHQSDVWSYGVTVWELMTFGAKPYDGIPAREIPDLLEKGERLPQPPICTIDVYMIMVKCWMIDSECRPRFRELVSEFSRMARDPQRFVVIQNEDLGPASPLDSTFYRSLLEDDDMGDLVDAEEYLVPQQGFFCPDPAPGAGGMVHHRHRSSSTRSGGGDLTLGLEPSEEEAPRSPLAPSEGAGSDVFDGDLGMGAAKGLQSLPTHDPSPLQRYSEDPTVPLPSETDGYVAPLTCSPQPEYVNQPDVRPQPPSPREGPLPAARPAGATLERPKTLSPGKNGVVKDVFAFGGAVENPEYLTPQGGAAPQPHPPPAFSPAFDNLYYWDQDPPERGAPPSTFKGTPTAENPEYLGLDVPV

[3] = system: HeLa cervical adenocarcinoma; experiment: In vitro cell proliferation inhibition, HeLa; format: cell-based; settings: Homo sapiens; HeLa cell line; ATP-Lite method or C14 thymidine method; read-out: HeLa IC50
[4] = system: SK-OV-3 ovarian carcinoma; experiment: In vitro cell proliferation inhibition, SK-OV-3; format: cell-based; settings: Homo sapiens; SK-OV-3 cells, 14C-thymidine incorporation
Source text: (§1) The ability of a test compound to inhibit unregulated in vitro cell proliferation may be determined by measuring incorporation of ^14C-labelled thymidine into newly synthesized DNA within cell lines derived from carcinomas originating from several tissues. Accordingly, the effect of a test compound on proliferation of cells with a variety of phenotypes may be determined.
(§2) Carcinoma cell lines used include the HeLa cervical adenocarcinoma from the American Type Culture Collection (ATCC Cat. #CCL2), SK-OV-3 ovarian carcinoma (ATCC Cat. #HTB-77), MCF-7 breast carcinoma (ATCC Cat. #HTB-22), BT474 breast carcinoma (ATCC Cat. #HTB-20), SKBR3 breast carcinoma (ATCC Cat. #HTB-30), A431 epidermoid carcinoma (ATCC Cat. #CRL-1555) and NCI-N87 gastric carcinoma (ATCC Cat. #CRL-5822).
(§3) The carcinoma cells are trypsinized and counted. The cells (3000-8000 count) are added to each well of a 96-well CytoStar tissue culture treated scintillating microplate (Amersham #RPNQ0160) in complete medium (100 μL) and the plate is then incubated in complete medium for 24 hrs at 37° C. in an inert atmosphere containing 5% CO2.
(§4) Test compound (1 μL) in 100% DMSO is added to the plate test-wells with DMSO only added to control-wells. The plate is incubated in complete medium for a second 24 hr period at 37° C. in an atmosphere containing 5% CO2.
(§5) An aliquot of a solution of Methyl ^14C-thymidine (56 mC/mmol) (NEN #NEC568 or Amersham #CFA532) and complete medium (20 μL to provide 0.2 μCi/well) is then added to each well and the plate is incubated for a third 24 hr period at 37° C. in an atmosphere containing 5% CO2.
(§6) The plate contents are then discarded, the plate is washed twice with PBS (200 μL) and then PBS (200 μL) is added to each well. The plate is sealed and the degree of methyl ^14C-thymidine incorporation is quantified on a Packard Top Count.
(§7) Cell proliferation of the Hela cell line was measured using the ATP-Lite method as described in the ATP Lite Kit (Perkin-Elmer Kit Number 6106941) or the C^14 method as described above. Cell proliferation of the other cell lines was measured using the C^14 method.
(§8) The term “NT” means that the compound indicated was not tested in a particular cell line. The lack of such testing is not intended to imply a belief that the compound is not otherwise active in a particular cell line or any other cell line not tested.

[5] = system: MCF-7 breast carcinoma; experiment: In vitro cell proliferation inhibition, MCF-7; format: cell-based; settings: Homo sapiens, MCF7; MCF-7 cells, 14C-thymidine incorporation
Source text: as §1, §2, §3, §4, §5, §6, §7, §8

[6] = system: BT474 breast carcinoma; experiment: In vitro cell proliferation inhibition, BT474; format: cell-based; settings: Homo sapiens, BT-474; BT474 cells, 14C-thymidine incorporation; read-out: IC50 BT474
[7] = system: SKBR3 breast carcinoma; experiment: In vitro cell proliferation inhibition, SKBR3; format: cell-based; settings: Homo sapiens, SK-BR-3; SKBR3 cells, 14C-thymidine incorporation; read-out: IC50 SKBR3
[8] = system: A431 epidermoid carcinoma; experiment: In vitro cell proliferation inhibition, A431; format: cell-based; settings: Homo sapiens, A-431; A431 cells, 14C-thymidine incorporation; read-out: IC50 A431
[9] = system: NCI-N87 gastric carcinoma; experiment: In vitro cell proliferation inhibition, NCI-N87; format: cell-based; settings: Homo sapiens, NCI-N87; N87 cells, 14C-thymidine incorporation; read-out: IC50 N87
[10] = system: N87 gastric carcinoma cells; experiment: N87 Human Tumor Xenograft Model; format: in vivo, nu/nu mice; settings: treatment groups 5-10, 100 mg/kg oral once daily for 30 days
Source text: The N87 gastric carcinoma cell line overexpresses HER-2 as a result of gene amplification and forms tumors in nude mice (Kasprzyk P G, Song S U, Di Fiore P P, King C R, Therapy of an animal model of human gastric cancer using a combination of anti-erbB-2 monoclonal antibodies, Cancer Res., 1992, 52, 2771-2776).
Female nu/nu mice (Charles River; 8 to 9 weeks of age) were implanted subcutaneously with from 3×10^6 to 5×10^6 N87 gastric carcinoma cells (obtained from the American Type Culture Collection, ATCC Cat. #CRL-5822) in the flank. Animals were weighed twice weekly during the study and examined frequently.
Tumor size was monitored twice weekly and then daily as the neoplasms reached the target weight range (about 75 mg). Animals were pair-matched when tumors were in the 62 to 126 mg range (group mean tumor size: 70 to 74 mg). Estimated tumor weight was calculated using the formula: […]
A test compound was orally administered daily in the test treatment group after the tumor reached the target weight. For treatment group 1, the test compound was administered once daily for 35 days. For treatment group 2, the test compound was administered once daily for 30 days. For treatment group 3, each dose of test compound was administered once daily for 30 days. For treatment group 4, each dose of test compound was administered once daily for 36 days. For treatment group 5-10, the test compound was administered once daily for 30 days.
Tumor weight was measured daily for subjects (n=8) in the test group and the matched subjects (n=8) in the vehicle-treated group.
The tumor growth inhibition (in percent) was calculated on the last day of the study using the formula: […]
(§9) Statistical significance was evaluated by comparing the vehicle group to the test group using a two tailed Students t test. The term “NC” means that the P value for the treatment group indicated was not calculated. The lack of such calculation is not intended to imply a belief that the activity of the compound is not otherwise statistically significant in this particular cell line or in any other cell line not tested.

[11] = system: A431 epidermoid carcinoma cells; experiment: A431 Human Tumor Xenograft Model; format: in vivo, nu/nu mice; settings: treatment groups 5-10, 100 mg/kg oral once daily for 30 days
Source text: The A431 epidermoid carcinoma cell line overexpresses EGFR, activating signaling pathways responsible for driving the proliferation, invasion and survival of cancer cells and forming tumors in nude mice (Giard D J, Aaronson S A, Todaro G J, Arnstein P, Kersey J H, Dosik H, Parks W P, In vitro cultivation of human tumors: establishment of cell lines derived from a series of solid tumors, J. Natl. Cancer Inst., 1973, 51, 1417-1423; and, Kawamoto T, Sato J D, Le A, Polikoff J, Sato G H, Mendelsohn J, Growth stimulation of A431 cells by epidermal growth factor: identification of high-affinity receptors for epidermal growth factor by an anti-receptor monoclonal antibody, Proc. Natl. Acad. Sci. USA, 1983, 80, 1337-1341).
Female nu/nu mice (Charles River; 8 to 9 weeks of age) were implanted subcutaneously in the flank with 4×10^6 A431 epidermoid carcinoma cells (obtained from the American Type Culture Collection, ATCC Cat. #CRL-1555). Animals were weighed twice weekly during the study and examined frequently.
Tumor size was monitored twice weekly and then daily as the neoplasms reached the target weight range (about 75 mg). Animals were pair-matched when tumors were in the 62 to 126 mg range (group mean tumor size: 70 to 74 mg). Estimated tumor weight was calculated using the formula of Example 4.
A test compound was orally administered daily in the test treatment group after the tumor reached the target weight. For treatment groups 1 and 2, each dose of test compound was administered once daily for 25 days. For treatment group 3, each dose of test compound was administered twice daily for 25 days. For treatment group 4, the test compound was administered twice daily for 30 days. For treatment group 5-10, the test compound was administered once daily for 30 days.
as §9

Nc1ncnc(Nc2ccc(OCc3cccc(F)c3)c(Cl)c2)c1/C=N/OCCN1CCOCC1 [Cpd 93, (5E)-4-amino-6-[3-chloro-4-(3-fluoro-benzyloxy)-phenylamino]-pyrimidine-5-carbaldehyde O-(2-morpholin-4-yl-ethyl)-oxime]
IC50 [1]: 20 nM
IC50 [2]: 8 nM
IC50 [3]: 22100 nM
IC50 [4]: 100000 nM
IC50 [5]: 100000 nM
IC50 [6]: 40 nM
IC50 [7]: 20 nM
IC50 [8]: 600 nM
IC50 [9]: 70 nM
N87 Tumor Growth Inhibition TGI [10]: 59.9%
A431 Tumor Growth Inhibition TGI [11]: 64.0%

Nc1ncnc(Nc2ccc(OCc3cccc(F)c3)c(Cl)c2)c1/C=N/OCCN1CCCCC1 [Cpd 94, (5E)-4-amino-6-[3-chloro-4-(3-fluoro-benzyloxy)-phenylamino]-pyrimidine-5-carbaldehyde O-(2-piperidin-1-yl-ethyl)-oxime]
IC50 [1]: 20 nM
IC50 [2]: 40 nM
IC50 [3]: 6100 nM
IC50 [4]: 1000 nM
IC50 [5]: 1000 nM
IC50 [6]: 500 nM
IC50 [7]: 500 nM
IC50 [9]: 400 nM
N87 Tumor Growth Inhibition TGI [10]: 47.1%
A431 Tumor Growth Inhibition TGI [11]: 66%

Nc1ncnc(Nc2ccc3c(ccn3Cc3cccc(F)c3)c2)c1/C=N/OCCN1CCOCC1 [Cpd 101, (5E)-4-amino-6-[1-(3-fluoro-benzyl)-1H-indol-5-ylamino]-pyrimidine-5-carbaldehyde O-(2-morpholin-4-yl-ethyl)-oxime]
IC50 [2]: 60 nM
IC50 [3]: 25100 nM
IC50 [6]: 50 nM
IC50 [7]: 60 nM
IC50 [8]: 9 nM
IC50 [9]: 30 nM
N87 Tumor Growth Inhibition TGI [10]: 66%
A431 Tumor Growth Inhibition TGI [11]: 51%

Nc1ncnc(Nc2ccc(OCc3ccccc3)c(Cl)c2)c1/C=N/OCCCN1CCOCC1 [Cpd 112, (5E)-4-amino-6-(4-benzyloxy-3-chloro-phenylamino)-pyrimidine-5-carbaldehyde O-(3-morpholin-4-yl-propyl)-oxime]
IC50 [1]: 20 nM
N87 Tumor Growth Inhibition TGI [10]: 48.6%
A431 Tumor Growth Inhibition TGI [11]: 33%

COCCNCCCO/N=C/c1c(N)ncnc1Nc1ccc(OCc2ccccc2)c(Cl)c1 [Cpd 115, (5E)-4-amino-6-(4-benzyloxy-3-chloro-phenylamino)-pyrimidine-5-carbaldehyde O-[3-(2-methoxy-ethylamino)-propyl]-oxime]
N87 Tumor Growth Inhibition TGI [10]: 50.2%
A431 Tumor Growth Inhibition TGI [11]: 4%
